{
  "source": "patent US6194398A",
  "about": "“Phosphonate nucleotide compound” (Mitsubishi Chemical Corporation, priority 1996, dated 2001)",
  "key": {"[1]": {"assay": "Cytotoxicity: concentration causing death to 50% of HB611 cells", "format": "cell-based", "conditions": "human, read-out: 50% Cytotoxic concentration for HB611 cells", "procedure": "A total of 2×10^4 cells of HB611 (a HBV-producing recombinant human hepatoma cell strain) were cultured at 37° C. in Dulbecco's ME medium containing 10% fetal bovine serum, streptomycin (100 μg/ml), penicillin (100 IU/ml) and Geneticin (trade name, an antibiotic substance manufactured by Life Technologies) (0.2 mg/ml). […] The amount of HBV-DNA in the cells was measured by Southern blotting to calculate concentration of the compound to give 50% inhibition of HBV-DNA synthesis. Also, the concentration of each compound required for causing death to 50% of the HB611 cells was calculated. For the sake of comparison, the same test was carried out on a known compound PMFA, a dipivaloyloxymethyl ester of PMEA (Reference Example 1) and a known compound 9-[2-[bis(2,2,2-trifluoroethyl)-phosphonylmethoxy]ethyl]-2-amino-6-p-toluylthiopurine disclosed in EP 632048 (Reference Example 2). In this connection, the compound No. corresponds to the compound No. in Table 1."}, "[2]": {"system": "herpes simplex virus type 1 (HSV-1)", "conditions": "reported in literature; cited from earlier work"}, "[3]": {"system": "human immunodeficiency virus (HIV)", "conditions": "reported in literature; cited from earlier work"}, "[4]": {"system": "Hepatitis B virus (HBV)", "assay": "HBV growth inhibition effect: HBV-DNA synthesis in HB611 cells, Southern blotting", "format": "cell-based", "conditions": "read-out: 50% inhibitory concentration for HBV-DNA synthesis", "procedure": "Hepatitis B virus (HBV) growth inhibition effect\nHBV growth inhibition effect was measured in accordance with a known method (K. Ueda et al., Virology, 169, 213-216 (1989)).\nA total of 2×10^4 cells of HB611 (a HBV-producing recombinant human hepatoma cell strain) were cultured at 37° C. in Dulbecco's ME medium containing 10% fetal bovine serum, streptomycin (100 μg/ml), penicillin (100 IU/ml) and Geneticin (trade name, an antibiotic substance manufactured by Life Technologies) (0.2 mg/ml). The medium was exchanged on the 2nd and 5th days of the culturing and then replaced by the medium supplemented with a sample to be tested at a final concentration of from 0.005 to 100 μM after 8, 11 and 14 days of the culturing, and DNA was recovered from the cells after 17 days of the culturing. The amount of HBV-DNA in the cells was measured by Southern blotting to calculate concentration of the compound to give 50% inhibition of HBV-DNA synthesis. Also, the concentration of each compound required for causing death to 50% of the HB611 cells was calculated. For the sake of comparison, the same test was carried out on a known compound PMFA, a dipivaloyloxymethyl ester of PMEA (Reference Example 1) and a known compound 9-[2-[bis(2,2,2-trifluoroethyl)-phosphonylmethoxy]ethyl]-2-amino-6-p-toluylthiopurine disclosed in EP 632048 (Reference Example 2). In this connection, the compound No. corresponds to the compound No. in Table 1."}, "[5]": {"system": "herpes simplex virus type 2 (HSV-2)", "conditions": "reported in literature; cited from earlier work"}, "[6]": {"system": "human hepatitis B virus (HBV)", "conditions": "reported in literature; cited from earlier work"}, "[7]": {"system": "HBV", "assay": "Inhibitory effect on HBV replication of low molecular weight fraction of liver homogenate of orally dosed mouse", "format": "cell-based, hepatitis B virus", "conditions": "0.2 g/kg oral, liver 1 hour after administration, 1% low molecular weight fraction in HB611 medium", "procedure": "Inhibitory effect on HBV replication of low molecular weight fraction prepared from liver homogenate of a mouse that was orally administered with a compound.\nA sample to be tested was orally administered to each mouse of three animals per group in a dose of 0.2 g/kg, liver perfusion was carried out from the portal vein one hour after the administration and then the liver was excised. The thus excised liver was mixed with the same weight of physiological saline and was homogenized, and then a sample of low molecular weight fraction of the homogenate was prepared using an ultrafiltration membrane having a cutoff of 5,000 molecular weight.\nA total of 2×10^4 cells of HB611 were cultured at 37° C. in Dulbecco's ME medium containing 10% fetal bovine serum, streptomycin (100 μg/ml), penicillin (100 IU/ml) and Geneticin (0.2 mg/ml). The medium was exchanged on the 2nd and 5th days of the culturing and then replaced by the medium supplemented with 1% of the just described low molecular weight fraction sample after 8, 11 and 14 days of the culturing, and DNA was recovered from the cells after 17 days of the culturing. The amount of HBV-DNA in the cells was measured by Southern blotting to evaluate inhibitory effect on HBV-DNA synthesis in the cells. […]"}, "[8]": {"conditions": "408 h, HB611 cells, medium with sample on days 8, 11 and 14, DNA recovered after 17 days"}},
  "note": "Read-outs that look alike come from different tables or passages of the source.",
  "data": [
    {"smiles": "Nc1ncnc2c1ncn2CCOCP(=O)(O)O", "note": "[PMEA, 9-(2-phosphonylmethoxy)ethyladenine]", "values": [
      {"measurement": "CC50", "setting": "[1]", "value": 334, "unit": "µM"},
      {"measurement": "effective against HSV-1", "setting": "[2]", "value": "effective"},
      {"measurement": "effective against HIV", "setting": "[3]", "value": "effective"},
      {"measurement": "IC50", "setting": "[4]; HB611, 408 h", "value": 300, "unit": "nM"},
      {"measurement": "effective against HSV-2", "setting": "[5]", "value": "effective"},
      {"measurement": "effective against HBV", "setting": "[6]", "value": "effective"}
    ]},
    {"smiles": "CCCSc1nc(N)nc2c1ncn2CCOCP(=O)(OCC(F)(F)F)OCC(F)(F)F", "note": "[Compound 3, 2-amino-9-[2-[bis(2,2,2-trifluoroethyl)phosphonylmethoxy]ethyl]-6-n-propylthiopurine]", "values": [
      {"measurement": "% inhibition of HBV-DNA synthesis", "setting": "[7]", "value": 49, "unit": "%"},
      {"measurement": "CC50", "setting": "[1]", "value": "> 1000", "unit": "µM"},
      {"measurement": "IC50", "setting": "[4]; [8]", "value": 20, "unit": "nM"}
    ]},
    {"smiles": "CC(C)(C)C(=O)OCOP(=O)(COCCn1cnc2c(N)ncnc21)OCOC(=O)C(C)(C)C", "note": "[Ref. Ex. 1]", "values": [
      {"measurement": "CC50", "setting": "[1]", "value": 17.7, "unit": "µM"},
      {"measurement": "IC50", "setting": "[4]; HB611, 408 h", "value": 1080, "unit": "nM"}
    ]},
    {"smiles": "CC(C)Sc1nc(N)nc2c1ncn2CCOCP(=O)(OCC(F)(F)F)OCC(F)(F)F", "note": "[Compound 4, 2-amino-9-[2-[bis(2,2,2-trifluoroethyl)phosphonylmethoxy]ethyl]-6-i-propylthiopurine]", "values": [
      {"measurement": "CC50", "setting": "[1]", "value": "> 1000", "unit": "µM"},
      {"measurement": "IC50", "setting": "[4]; [8]", "value": 70, "unit": "nM"}
    ]},
    {"smiles": "Nc1nc(N)c2ncn(CCOCP(=O)(O)O)c2n1", "note": "[PMDAP, 9-(2-phosphonylmethoxy)ethyl-2,6-diaminopurine]", "values": [
      {"measurement": "effective against HSV-1", "setting": "[2]", "value": "effective"},
      {"measurement": "effective against HIV", "setting": "[3]", "value": "effective"},
      {"measurement": "effective against HSV-2", "setting": "[5]", "value": "effective"},
      {"measurement": "effective against HBV", "setting": "[6]", "value": "effective"}
    ]},
    {"smiles": "CCSc1nc(N)nc2c1ncn2CCOCP(=O)(OCC(F)(F)F)OCC(F)(F)F", "note": "[Compound 2, 2-amino-9-[2-[bis(2,2,2-trifluoroethyl)phosphonylmethoxy]ethyl]-6-ethylthiopurine]", "values": [
      {"measurement": "CC50", "setting": "[1]", "value": "> 1000", "unit": "µM"},
      {"measurement": "IC50", "setting": "[4]; [8]", "value": 60, "unit": "nM"}
    ]},
    {"smiles": "Cc1ccc(Sc2nc(N)nc3c2ncn3CCOCP(=O)(OCC(F)(F)F)OCC(F)(F)F)cc1", "note": "[Ref. Ex. 2, 9-[2-[bis(2,2,2-trifluoroethyl)-phosphonylmethoxy]ethyl]-2-amino-6-p-toluylthiopurine]", "values": [
      {"measurement": "IC50", "setting": "[4]; [8]", "value": 60, "unit": "nM"}
    ]},
    {"smiles": "CCCSc1nc(N)nc2c1ncn2CCOCP(=O)(O)O", "note": "[Ref. Ex. 3, 2-amino-9-(2-phosphonylmethoxyethyl)-6-n-propylthiopurine]", "values": [
      {"measurement": "% inhibition of HBV-DNA synthesis", "setting": "[7]", "value": 17, "unit": "%"}
    ]}
  ]
}
